In ChEMBL document CHEMBL5058642, “Data for DCP probe TP-051” (2022):
Blank lines part the entries; values can stand above or below the compound they belong to.

How the values were obtained:
[1] = target: Glycogen synthase kinase-3 beta (Homo sapiens) (UniProt P49841); assay: Protein Serine/Threonine Kinase, GSK-3β Eurofins-Panlabs enzyme assay; parameters: substrate with concentration; details: Compound concentration 10.0 uM
[2] = target: cGMP-specific 3',5'-cyclic phosphodiesterase (Homo sapiens) (UniProt O76074); details: Compound concentration 10.0 uM
[3] = target: Phosphodiesterase 3 (Homo sapiens) (UniProt Q14432+Q13370); assay: Inhibition of Phosphodiesterase PDE3 at compound concentration of 10.0 uM in the Eurofins-Panlabs enzyme assay (Eurofins_assay_152000); type: protein assay; parameters: substrate with concentration 1.01 uM [3H] cAMP + cAMP, incubation time 20 min, incubation temperature 25 C; details: Compound concentration 10.0 uM
[4] = target: 5-hydroxytryptamine receptor 5A (Homo sapiens) (UniProt P47898); details: Compound concentration 10.0 uM
[5] = target: Beta-2 adrenergic receptor (Homo sapiens, UniProt P07550); assay: GPCRScan assay: inhibition of Beta2; parameters: radioligand conc. used [nm] 0.5 - 1.0, parental cells HEK Flp-In
Chain of Beta-2 adrenergic receptor (P07550 whole entry): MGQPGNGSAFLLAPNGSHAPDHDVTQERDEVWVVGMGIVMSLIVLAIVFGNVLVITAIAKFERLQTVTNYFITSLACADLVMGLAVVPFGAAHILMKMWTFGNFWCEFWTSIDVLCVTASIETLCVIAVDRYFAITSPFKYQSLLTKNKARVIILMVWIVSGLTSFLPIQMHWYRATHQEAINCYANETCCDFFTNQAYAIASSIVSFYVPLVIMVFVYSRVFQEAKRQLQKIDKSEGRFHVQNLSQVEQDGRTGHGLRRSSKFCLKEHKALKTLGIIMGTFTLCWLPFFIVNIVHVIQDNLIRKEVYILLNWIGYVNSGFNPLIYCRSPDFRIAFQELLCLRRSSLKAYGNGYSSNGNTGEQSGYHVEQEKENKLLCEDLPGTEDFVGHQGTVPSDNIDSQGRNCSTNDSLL

[6] = target: Polyunsaturated fatty acid 5-lipoxygenase (Homo sapiens) (UniProt P09917); assay: Lipoxygenase 5-LO Eurofins-Panlabs enzyme assay; details: Compound concentration 10.0 uM
[7] = target: Vasopressin V2 receptor (Homo sapiens) (UniProt P30518); assay: Inhibition of Vasopressin V2 at 10 µM in the Eurofins-Panlabs radioligand binding assay (Eurofins_assay_287610); parameters: ligand concentration 4 nM; details: Compound concentration 10.0 uM
[8] = target: Neprilysin (Homo sapiens) (UniProt P08473); assay: Peptidase, Metalloproteinase, Neutral Endopeptidase Eurofins-Panlabs enzyme assay; details: Compound concentration 10.0 uM
Bos taurus [9] = organism: Bos taurus; assay: Protein Serine/Threonine Kinase, PKA, Non-Selective Eurofins-Panlabs enzyme assay; type: protein-complex assay; parameters: substrate with concentration 370 µg/mL Histone Type III-S, incubation time 15 min, incubation temperature 25 °C; details: Compound concentration 10.0 uM
[10] = target: Interstitial collagenase (Homo sapiens) (UniProt P03956); assay: Inhibition of Peptidase, Matrix Metalloproteinase-1 (MMP-1) at 10 µM in the Eurofins-Panlabs enzyme assay (Eurofins_assay_114110); details: Compound concentration 10.0 uM
Homo sapiens [11] = organism: Homo sapiens; details: Compound concentration 10.0 uM
[12] = target: Muscarinic acetylcholine receptor M3 (Homo sapiens) (UniProt P20309); details: Compound concentration 10.0 uM
[13] = target: Mitogen-activated protein kinase 3 (Homo sapiens) (UniProt P27361); assay: Inhibition of Protein Serine/Threonine Kinase, MAPK3 (ERK1) at 10 µM in the Eurofins-Panlabs enzyme assay (Eurofins_assay_171000); details: Compound concentration 10.0 uM
Chain of Mitogen-activated protein kinase 3 (Homo sapiens) (P27361 whole entry): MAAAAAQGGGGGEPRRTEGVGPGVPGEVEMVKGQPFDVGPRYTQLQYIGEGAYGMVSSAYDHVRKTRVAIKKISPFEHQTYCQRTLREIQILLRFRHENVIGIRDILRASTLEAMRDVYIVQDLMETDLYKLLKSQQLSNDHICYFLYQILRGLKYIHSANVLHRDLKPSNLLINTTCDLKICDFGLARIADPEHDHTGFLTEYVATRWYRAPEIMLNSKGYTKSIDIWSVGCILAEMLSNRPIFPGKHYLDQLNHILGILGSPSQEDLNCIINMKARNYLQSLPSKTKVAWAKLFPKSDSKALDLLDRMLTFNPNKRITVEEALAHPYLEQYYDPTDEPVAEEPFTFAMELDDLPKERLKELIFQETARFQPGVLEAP

[14] = target: 5-hydroxytryptamine receptor 7 (Homo sapiens) (UniProt P34969); details: Compound concentration 10.0 uM
[15] = target: Disintegrin and metalloproteinase domain-containing protein 17 (Homo sapiens) (UniProt P78536); assay: Peptidase, Tumor Necrosis Factor-alpha Converting Enzyme (TACE) Eurofins-Panlabs enzyme assay; parameters: substrate with concentration; details: Compound concentration 10.0 uM
Chain of Disintegrin and metalloproteinase domain-containing protein 17 (Homo sapiens) (P78536 whole entry, the tested form may be a part): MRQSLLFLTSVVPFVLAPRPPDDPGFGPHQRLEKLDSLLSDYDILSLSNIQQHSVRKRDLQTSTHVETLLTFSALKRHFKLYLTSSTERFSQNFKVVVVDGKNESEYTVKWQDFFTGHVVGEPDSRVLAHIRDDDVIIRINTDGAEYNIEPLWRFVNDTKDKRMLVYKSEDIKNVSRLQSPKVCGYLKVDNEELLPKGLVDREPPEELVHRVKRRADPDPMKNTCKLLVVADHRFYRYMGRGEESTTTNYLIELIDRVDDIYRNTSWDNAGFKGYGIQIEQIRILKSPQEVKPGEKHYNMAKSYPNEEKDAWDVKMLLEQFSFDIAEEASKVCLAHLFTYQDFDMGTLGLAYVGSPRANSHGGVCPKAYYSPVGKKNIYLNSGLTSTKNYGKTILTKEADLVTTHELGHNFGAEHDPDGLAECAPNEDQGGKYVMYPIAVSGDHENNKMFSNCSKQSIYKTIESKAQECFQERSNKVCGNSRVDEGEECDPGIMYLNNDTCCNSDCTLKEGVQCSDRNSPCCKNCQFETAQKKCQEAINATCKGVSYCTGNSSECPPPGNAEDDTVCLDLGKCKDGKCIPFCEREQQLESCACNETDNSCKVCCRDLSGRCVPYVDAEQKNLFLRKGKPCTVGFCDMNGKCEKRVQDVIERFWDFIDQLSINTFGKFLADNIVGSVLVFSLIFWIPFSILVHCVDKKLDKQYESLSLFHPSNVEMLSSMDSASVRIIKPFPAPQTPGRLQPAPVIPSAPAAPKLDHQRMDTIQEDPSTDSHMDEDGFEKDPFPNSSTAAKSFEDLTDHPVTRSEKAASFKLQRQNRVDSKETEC

[16] = target: Steroid 5-alpha-reductase (Rattus norvegicus) (UniProt P24008+P31214); assay: Steroid 5α-Reductase Eurofins-Panlabs enzyme assay; type: protein assay; parameters: substrate with concentration; details: Compound concentration 10.0 uM
[17] = target: Coagulation factor X (Homo sapiens) (UniProt P00742); assay: Peptidase, Factor Xa Eurofins-Panlabs enzyme assay; parameters: substrate with concentration; details: Compound concentration 10.0 uM
Chain of Coagulation factor X (Homo sapiens) (P00742 41-179 limits assumed): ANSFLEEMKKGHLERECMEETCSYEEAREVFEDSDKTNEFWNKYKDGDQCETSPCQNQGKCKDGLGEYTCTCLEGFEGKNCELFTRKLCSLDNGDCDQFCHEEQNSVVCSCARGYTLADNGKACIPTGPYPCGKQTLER
Chain of Coagulation factor X (Homo sapiens) (P00742 235-488 limits assumed): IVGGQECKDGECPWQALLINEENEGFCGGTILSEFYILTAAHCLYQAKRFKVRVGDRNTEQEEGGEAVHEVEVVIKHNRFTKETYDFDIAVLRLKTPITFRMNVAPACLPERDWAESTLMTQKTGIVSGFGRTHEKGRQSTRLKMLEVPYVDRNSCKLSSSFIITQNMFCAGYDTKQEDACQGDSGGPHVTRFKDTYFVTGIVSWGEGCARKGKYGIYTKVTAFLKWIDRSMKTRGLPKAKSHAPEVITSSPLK

[18] = target: Matrix metalloproteinase-14 (Homo sapiens) (UniProt P50281); assay: Peptidase, Matrix Metalloproteinase-14 (MMP-14) Eurofins-Panlabs enzyme assay; parameters: substrate with concentration; details: Compound concentration 10.0 uM
[19] = target: 5-hydroxytryptamine receptor 2C (Homo sapiens) (UniProt P28335); details: Compound concentration 10.0 uM
Chain of 5-hydroxytryptamine receptor 2C (Homo sapiens) (P28335 whole entry): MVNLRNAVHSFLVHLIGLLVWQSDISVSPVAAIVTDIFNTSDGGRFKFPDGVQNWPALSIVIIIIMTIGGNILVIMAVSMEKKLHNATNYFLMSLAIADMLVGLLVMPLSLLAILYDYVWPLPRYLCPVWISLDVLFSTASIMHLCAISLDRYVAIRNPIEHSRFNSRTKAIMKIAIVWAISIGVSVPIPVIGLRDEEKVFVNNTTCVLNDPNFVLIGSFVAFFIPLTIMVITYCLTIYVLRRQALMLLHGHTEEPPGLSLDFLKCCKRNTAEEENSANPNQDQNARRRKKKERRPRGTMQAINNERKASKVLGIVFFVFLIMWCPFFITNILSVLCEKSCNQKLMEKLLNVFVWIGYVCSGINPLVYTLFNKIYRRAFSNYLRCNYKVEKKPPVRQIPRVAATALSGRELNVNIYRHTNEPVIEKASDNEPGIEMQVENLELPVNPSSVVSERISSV

[20] = target: RAC-alpha serine/threonine-protein kinase (Homo sapiens) (UniProt P31749); assay: Protein Serine/Threonine Kinase, PKBα/Akt1 Eurofins-Panlabs enzyme assay; details: Compound concentration 10.0 uM
Bos taurus [21] = organism: Bos taurus; assay: Phosphodiesterase PDE6 Eurofins-Panlabs enzyme assay; parameters: substrate with concentration [3H] cGMP + cGMP, incubation time 20 min, incubation temperature 25 °C; details: Compound concentration 10.0 uM
[22] = target: Ca2+/calmodulin-dependent protein kinase II (CaM kinase II) (Rattus norvegicus) (UniProt P11275+P08413+P15791+P11730); assay: Protein Serine/Threonine Kinase, Ca2+/Calmodulin-Dep.II Eurofins-Panlabs enzyme assay; details: Compound concentration 10.0 uM
[23] = target: Prothrombin (Homo sapiens) (UniProt P00734); assay: Peptidase, Thrombin Eurofins-Panlabs enzyme assay; parameters: substrate with concentration; details: Compound concentration 10.0 uM
Homo sapiens [24] = organism: Homo sapiens; assay: Inhibition of Phosphodiesterase PDE4 at compound concentration of 10.0 uM in the Eurofins-Panlabs enzyme assay (Eurofins_assay_154000); type: protein assay; parameters: substrate with concentration 1.01 uM [3 H]cAMP + cAMP, incubation time 20 min, incubation temperature 25 C; details: Compound concentration 10.0 uM
[25] = target: Sodium-dependent dopamine transporter (Homo sapiens, UniProt Q01959); assay: GPCRScan assay: inhibition of DAT; parameters: radioligand conc. used [nm] 3.6 – 16.0, parental cells stable HEK
Chain of Sodium-dependent dopamine transporter (Q01959 whole entry): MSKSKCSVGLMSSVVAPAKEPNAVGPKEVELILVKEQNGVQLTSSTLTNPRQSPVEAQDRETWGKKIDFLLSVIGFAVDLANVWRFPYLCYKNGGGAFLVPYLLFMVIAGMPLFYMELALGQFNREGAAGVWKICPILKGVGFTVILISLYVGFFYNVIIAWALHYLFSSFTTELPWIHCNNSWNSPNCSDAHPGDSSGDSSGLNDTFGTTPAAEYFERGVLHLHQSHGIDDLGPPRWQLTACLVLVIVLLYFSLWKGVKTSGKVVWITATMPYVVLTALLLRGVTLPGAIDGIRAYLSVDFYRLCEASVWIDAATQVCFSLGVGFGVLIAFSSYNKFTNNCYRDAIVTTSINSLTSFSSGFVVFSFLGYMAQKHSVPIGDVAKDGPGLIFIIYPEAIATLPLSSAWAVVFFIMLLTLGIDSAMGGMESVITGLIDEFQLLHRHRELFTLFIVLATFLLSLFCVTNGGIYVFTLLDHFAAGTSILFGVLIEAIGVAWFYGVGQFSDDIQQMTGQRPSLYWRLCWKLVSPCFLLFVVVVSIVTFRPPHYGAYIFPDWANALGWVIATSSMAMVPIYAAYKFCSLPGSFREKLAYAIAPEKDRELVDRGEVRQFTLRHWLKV

Renin (Homo sapiens) = Renin (Homo sapiens) (UniProt P00797); assay: Peptidase, Renin Eurofins-Panlabs enzyme assay; details: Compound concentration 10.0 uM
[26] = target: Sodium-dependent serotonin transporter (Homo sapiens) (UniProt P31645); assay: Transporter, Serotonin (5- Hydroxytryptamine) (SERT) Eurofins-Panlabs radioligand binding assay; parameters: ligand concentration 0.15 nM, non-specific ligand with concentration 10 µM Imipramine, incubation time 3 h, incubation temperature 4 °C; details: Compound concentration 10.0 uM
Chain of Sodium-dependent serotonin transporter (Homo sapiens) (P31645 whole entry, looked up): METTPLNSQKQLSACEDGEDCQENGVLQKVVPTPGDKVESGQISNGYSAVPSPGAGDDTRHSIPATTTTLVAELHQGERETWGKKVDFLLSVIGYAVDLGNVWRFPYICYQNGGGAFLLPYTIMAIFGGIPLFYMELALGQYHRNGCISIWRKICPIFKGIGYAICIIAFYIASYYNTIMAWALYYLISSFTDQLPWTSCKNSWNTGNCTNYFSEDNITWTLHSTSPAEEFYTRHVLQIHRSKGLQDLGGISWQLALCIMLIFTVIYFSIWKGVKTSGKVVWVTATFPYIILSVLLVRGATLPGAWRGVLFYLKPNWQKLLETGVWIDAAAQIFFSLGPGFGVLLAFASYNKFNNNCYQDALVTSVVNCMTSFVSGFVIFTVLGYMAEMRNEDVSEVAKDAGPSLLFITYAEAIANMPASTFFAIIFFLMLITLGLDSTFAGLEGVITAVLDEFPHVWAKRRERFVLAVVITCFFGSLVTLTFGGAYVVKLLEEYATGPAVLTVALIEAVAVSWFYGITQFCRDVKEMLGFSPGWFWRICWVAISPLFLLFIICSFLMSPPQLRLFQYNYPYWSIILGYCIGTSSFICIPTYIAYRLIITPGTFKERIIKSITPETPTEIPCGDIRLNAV

Canis lupus familiaris = organism: Canis lupus familiaris; assay: ATPase, Na+/K+ Eurofins-Panlabs enzyme assay; details: Compound concentration 10.0 uM
Rattus norvegicus [27] = organism: Rattus norvegicus; details: Compound concentration 10.0 uM
[28] = target: Coagulation factor VII (Homo sapiens) (UniProt P08709); assay: Peptidase, Factor VIIa Eurofins-Panlabs enzyme assay; parameters: substrate with concentration; details: Compound concentration 10.0 uM
D(3) dopamine receptor = D(3) dopamine receptor (Homo sapiens, UniProt P35462); assay: GPCRScan assay: inhibition of D3; parameters: radioligand conc. used [nm] 0.5 – 1.8, parental cells HEKT
[29] = target: 5-hydroxytryptamine receptor 6 (Homo sapiens) (UniProt P50406); details: Compound concentration 10.0 uM
Chain of 5-hydroxytryptamine receptor 6 (Homo sapiens) (P50406 whole entry): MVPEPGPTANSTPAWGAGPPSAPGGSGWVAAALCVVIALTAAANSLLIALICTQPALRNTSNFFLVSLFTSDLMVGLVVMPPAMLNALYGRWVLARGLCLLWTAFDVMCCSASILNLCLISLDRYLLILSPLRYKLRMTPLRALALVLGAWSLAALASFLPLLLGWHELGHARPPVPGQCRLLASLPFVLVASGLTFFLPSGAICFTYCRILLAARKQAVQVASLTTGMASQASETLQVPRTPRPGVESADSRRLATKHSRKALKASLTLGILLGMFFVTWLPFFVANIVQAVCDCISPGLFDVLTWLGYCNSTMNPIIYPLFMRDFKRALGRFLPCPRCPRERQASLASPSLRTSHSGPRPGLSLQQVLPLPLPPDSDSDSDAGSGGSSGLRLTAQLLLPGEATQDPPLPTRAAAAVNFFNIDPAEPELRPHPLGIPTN

[30] = target: 5-hydroxytryptamine receptor 2A (Homo sapiens) (UniProt P28223); details: Compound concentration 10.0 uM
[31] = target: Protein phosphatase 3 catalytic subunit alpha (Homo sapiens) (UniProt Q08209); assay: Protein Serine/Threonine Phosphatase, Calcineurin, PP2B Eurofins-Panlabs enzyme assay; details: Compound concentration 10.0 uM
Homo sapiens [32] = organism: Homo sapiens; assay: Cholecystokinin CCK2 (CCKB) Eurofins-Panlabs radioligand binding assay; parameters: ligand concentration 0.072 nM, non-specific ligand with concentration 1 µM Sincalide, incubation time 3 h, incubation temperature 25 °C; details: Compound concentration 10.0 uM
[33] = target: C5a anaphylatoxin chemotactic receptor 1 (Homo sapiens) (UniProt P21730); assay: Anaphylatoxin C5a Eurofins-Panlabs radioligand binding assay; details: Compound concentration 10.0 uM
[34] = target: Delta-type opioid receptor (Homo sapiens) (UniProt P41143); details: Compound concentration 10.0 uM
[35] = target: Free fatty acid receptor 1 (Homo sapiens, UniProt O14842); assay: FFAR1 binding assay
Chain of Free fatty acid receptor 1 (O14842 whole entry): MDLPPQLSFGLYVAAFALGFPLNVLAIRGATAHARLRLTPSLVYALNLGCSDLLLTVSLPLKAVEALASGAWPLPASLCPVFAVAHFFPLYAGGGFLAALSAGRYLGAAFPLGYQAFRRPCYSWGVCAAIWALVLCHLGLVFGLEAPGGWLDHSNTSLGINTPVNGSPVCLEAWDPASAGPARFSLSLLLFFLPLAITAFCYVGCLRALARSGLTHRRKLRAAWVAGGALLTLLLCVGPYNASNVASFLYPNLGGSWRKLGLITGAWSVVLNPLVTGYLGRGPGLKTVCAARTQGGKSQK

[36] = target: Neuromedin-K receptor (Homo sapiens) (UniProt P29371); assay: Tachykinin NK3 Eurofins-Panlabs radioligand binding assay; parameters: ligand concentration 0.8 nM; details: Compound concentration 10.0 uM
[37] = target: Muscarinic acetylcholine receptor M4 (Homo sapiens) (UniProt P08173); details: Compound concentration 10.0 uM
Chain of Muscarinic acetylcholine receptor M4 (Homo sapiens) (P08173 whole entry): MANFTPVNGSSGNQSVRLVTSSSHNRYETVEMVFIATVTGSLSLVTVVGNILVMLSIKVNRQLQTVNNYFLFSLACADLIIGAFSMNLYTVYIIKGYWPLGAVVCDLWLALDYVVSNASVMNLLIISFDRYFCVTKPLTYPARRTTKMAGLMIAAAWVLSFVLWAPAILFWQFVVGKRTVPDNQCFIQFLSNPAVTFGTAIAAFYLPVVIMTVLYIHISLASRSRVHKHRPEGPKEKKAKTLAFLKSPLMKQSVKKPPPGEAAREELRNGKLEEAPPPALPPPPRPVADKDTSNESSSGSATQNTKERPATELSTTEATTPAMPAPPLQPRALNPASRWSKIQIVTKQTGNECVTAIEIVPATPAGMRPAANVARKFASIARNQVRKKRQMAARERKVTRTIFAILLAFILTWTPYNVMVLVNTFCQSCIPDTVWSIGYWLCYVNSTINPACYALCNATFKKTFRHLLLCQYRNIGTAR

[38] = target: GABA-A receptor; anion channel (Rattus norvegicus) (UniProt O09028+P15431+P18506+P18508+P19969+P20236+P23574+P23576+P28471+P28473+P30191+P62813+P63079+P63138+Q91ZM7+Q9ES14); details: Compound concentration 10.0 uM
Rattus norvegicus [39] = organism: Rattus norvegicus; assay: Serotonin (5-Hydroxytryptamine) 5-HT2, Non-Selective Eurofins-Panlabs radioligand binding assay; type: protein assay; details: Compound concentration 10.0 uM
[40] = target: Sodium-dependent serotonin transporter (Homo sapiens) (UniProt P31645); details: Compound concentration 10.0 uM
Homo sapiens [41] = organism: Homo sapiens; assay: Inhibition of Nicotinic Acetylcholine at compound concentration of 10.0 uM in the Eurofins-Panlabs radioligand binding assay (Eurofins_assay_258590); type: protein-complex assay; details: Compound concentration 10.0 uM

- inhibition [1]: 19%
- inhibition [2]: -6%
- inhibition [3]: 3%
- inhibition [4]: 13.3%
- Ki [5]: > 10 µM
- pKi [5]: < 5
- inhibition [6]: 85%
- inhibition [7]: 0%
- inhibition [8]: 4%
- inhibition (Bos taurus [9]): 5%
- inhibition [10]: 2%
- inhibition (Homo sapiens [11]): 1%
- inhibition [12]: -0.18%
- inhibition [13]: 30%
- inhibition [14]: 2.66%
- inhibition [16]: 19%
- inhibition [17]: 2%
- inhibition [18]: 3%
- inhibition [19]: 14.1%
- inhibition [20]: -1%
- inhibition (Bos taurus [21]): 20%
- inhibition [22]: 44%
- inhibition [23]: -1%
- inhibition (Homo sapiens [24]): 26%
- Ki [25]: > 10 µM
- pKi [25]: < 5
- inhibition (Renin (Homo sapiens)): -1%
- inhibition [26]: -5%
- inhibition (Canis lupus familiaris): 4%
- inhibition (Rattus norvegicus [27]): -0.04%
- inhibition [28]: -10%
- Ki (D(3) dopamine receptor): 0.925 µM
- inhibition [29]: -7.86%
- inhibition [30]: 7.36%
- inhibition [31]: 10%
SMILES: Cc1cc(OC2CCS(=O)(=O)CC2)cc(C)c1-c1cccc(COc2ccc(CCC(=O)O)c(F)c2)c1
- inhibition [15]: 36%

SMILES: Cc1cc(OC2CCS(=O)(=O)CC2)cc(C)c1-c1cccc(COc2ccc(C(=O)O)c(F)c2)c1
- inhibition (Homo sapiens [32]): 5%
- inhibition [33]: -1%
- inhibition [34]: -7.07%
- Ki [35]: > 10 µM (not active)
- inhibition [36]: 10%
- inhibition [37]: -4.72%
- inhibition [38]: -1%
- inhibition (Rattus norvegicus [39]): -3%
- inhibition [40]: 2%
- inhibition (Homo sapiens [41]): -5%
